Reference: article PMC6161789, “Modeling and antitumor studies of a modified L–penetratin peptide targeting E2F in lung cancer and prostate cancer” (Oncotarget, 2018)
Ends that are not written are not given here.

Tests used:
DU145 cells = experiment: Stability testing of the peptide in RPMI 1640 with 10% FBS, read out by DU145 cell viability; format: in vitro ADME, human; details: pre-incubation in RPMI 1640 with 10% FBS, 37°C, 24 hours; then 24 hours on DU145 cells, MTS 490 nm, triplicate
Description: Figure 4 A. D- Arg Peptide incubated in 10% FBS RPMI media at 37°C for 24 hours is resistant to proteolysis; it is as effective as the non-incubated D- Arg Peptide in DU145 cells. D- Arg Peptide was incubated in RPMI media containing 10% FBS at 37°C for 24 hours. DU145 cells were seeded in a 96 well plate at 5000 cells in each well. After 24 hours either the incubated D- Arg Peptide or the non-incubated D- Arg Peptide was added to the cells. B. D- Arg and L-Arg Peptide incubated in 10% FBS RPMI media at 37°C for 24 hours. DU145 cells were seeded in a 96 well plate at 5000 cells in each well. After 24 hours either the incubated D- Arg Peptide or the L- Arg Peptide was added to the cells. The cell viability in both experiments were assessed after another 24 hours by measuring the absorption at 490nm using the MTS tetrazolium Promega CellTitre 96® Aqueous One Solution Cell proliferation assay according to the manufacturer’s instructions. Each time point was done in triplicate and values are represented by mean with standard mean deviation.
The peptide was mixed with the RPMI 1640 medium containing 10% FBS and incubated at 37 °C for 24 hours. Cells were plated in a 96 well plate in 180 μl of the media containing 10% FBS. After 24 hours, 20 μl of either the incubated D- Arg or the regular (fresh) D- Arg Peptide was added to the cell plate and tested after another 24 hours. Then 20 μl of the MTS tetrazolium Promega CellTitre 96® Aqueous One Solution Cell Proliferation Assay was added to each well and incubated for two to three hours. Absorbance was measured at 490 nm as per the manufacturer’s protocol to determine the cell viability.

Burkitt lymphoma cells = details: cited from earlier work
Description: (§1) This unique E2F1 inhibitory peptide with the sequence His-His-His-Arg-Leu-Ser-His, found by phage display, was discovered by its ability to bind tightly to an immobilized consensus E2F1 promoter sequence. Importantly, treatment of tumor xenografts of human small cell lung cancer H69 and human prostate cancer DU14 ...

[1] = system: pRB negative small cell lung cancer (SCLC) cells; details: cited from earlier work
Description: as §1

[2] = system: DU145 prostate cancer cells; details: cited from earlier work
Description: as §1

[3] = system: consensus E2F1 promoter sequence; details: found by phage display; cited from earlier work
Description: as §1

Row | Compound | Stability in serum: incubated D- Arg versus incubated L- Arg peptide (DU145 cells) | Stability: toxicity of pre-incubated versus fresh non-incubated peptide (DU145 cells) | Cytotoxicity (Burkitt lymphoma cells) | Cytotoxicity [1] | Cytotoxicity [2] | Binding to immobilized consensus E2F1 promoter sequence [3]
1 | CC[C@H](C)[C@H](NC(=O)[C@H](CCCCN)NC(=O)[C@@H](NC(=O)[C@H](CCC(N)=O)NC(=O)[C@@H](N)CCCNC(=N)N)[C@@H](C)CC)C(=O)N[C@@H](Cc1c[nH]c2ccccc12)C(=O)N[C@@H](Cc1ccccc1)C(=O)N[C@@H](CCC(N)=O)C(=O)N[C@@H](CC(N)=O)C(=O)N[C@@H](CCCNC(=N)N)C(=O)N[C@@H](CCCNC(=N)N)C(=O)N[C@@H](CCSC)C(=O)N[C@@H](CCCCN)C(=O)N[C@@H](Cc1c[nH]c2ccccc12)C(=O)N[C@@H](CCCCN)C(=O)N[C@@H](CCCCN)C(=O)N[C@@H](Cc1c[nH]cn1)C(=O)N[C@@H](Cc1c[nH]cn1)C(=O)N[C@@H](Cc1c[nH]cn1)C(=O)N[C@H](CCCNC(=N)N)C(=O)N[C@@H](CC(C)C)C(=O)N[C@@H](CO)C(=O)N[C@@H](Cc1c[nH]cn1)C(=O)O [D-Arg PEP] | more resistant to proteolysis after pre-incubation in serum | as potent as the non-incubated fresh D- Arg PEP | – | – | – | –
2 | CC[C@H](C)[C@H](NC(=O)[C@H](CCCCN)NC(=O)[C@@H](NC(=O)[C@H](CCC(N)=O)NC(=O)[C@@H](N)CCCNC(=N)N)[C@@H](C)CC)C(=O)N[C@@H](Cc1c[nH]c2ccccc12)C(=O)N[C@@H](Cc1ccccc1)C(=O)N[C@@H](CCC(N)=O)C(=O)N[C@@H](CC(N)=O)C(=O)N[C@@H](CCCNC(=N)N)C(=O)N[C@@H](CCCNC(=N)N)C(=O)N[C@@H](CCSC)C(=O)N[C@@H](CCCCN)C(=O)N[C@@H](Cc1c[nH]c2ccccc12)C(=O)N[C@@H](CCCCN)C(=O)N[C@@H](CCCCN)C(=O)N[C@@H](Cc1c[nH]cn1)C(=O)N[C@@H](Cc1c[nH]cn1)C(=O)N[C@@H](Cc1c[nH]cn1)C(=O)N[C@@H](CCCNC(=N)N)C(=O)N[C@@H](CC(C)C)C(=O)N[C@@H](CO)C(=O)N[C@@H](Cc1c[nH]cn1)C(=O)O [L-Arg PEP] | unstable in serum | – | cytotoxic at low micro molar concentrations | cytotoxic at low micro molar concentrations | cytotoxic at low micro molar concentrations | –
3 | HHHRLSH [E2F1 inhibitory peptide, 7-mer peptide His-His-His-Arg-Leu-Ser-His found by phage display] | – | – | – | – | – | bind tightly
